Source: patent US9040524B2, “Antifungal 5,6-dihydro-4H-pyrrolo[1,2-a][1,4]-benzodiazepines and 6H-pyrrolo[1,2-a][1,4]benzodiazepines substituted with bicycle benzene derivatives” (JANSSEN PHARMACEUTICA NV, priority 2010, dated 2015)

Key:
Format in all cases: cell-based
[1] = system: Microsporum canis; assay: Antifungal activity in vitro, resazurin growth inhibition screen: Microsporum canis; conditions: Microsporum canis B68128
Method: (§1) The standard susceptibility screen was performed in 96-well plates (U-bottom, Greiner Bio-One). Serial dilutions (2-fold or 4-fold) of 20 mM compound stock solutions were made in 100% DMSO, followed by an intermediate dilution step in water. These serial dilutions (10 μl) were then spotted onto test-plates that could be stored in the dark at 4° C. for a maximum period of 2 weeks. An adequate broad dose-range was included with 64 μM as the highest in-test concentration. […] The different fungal species/isolates (Table 3a) were cryopreserved and 1/1000 diluted in medium just prior to use. A standard inoculum of 200 μl containing 10^3 colony-forming unit (cfu) was then added to each well. A positive control (100% growth=fungal culture without antifungal) and a negative control (0% growth=RPMI-MOPS medium) were included on each plate.

[2] = system: Trichophyton mentagrophytes; assay: Antifungal activity in vitro, resazurin growth inhibition screen: Trichophyton mentagrophytes; conditions: Trichophyton mentagrophytes B70554
Method: as §1

[3] = system: Trichophyton rubrum; assay: Antifungal activity in vitro, resazurin growth inhibition screen: Trichophyton rubrum; conditions: Trichophyton rubrum B68183
Method: as §1

[4] = system: Sporothrix schenkii; assay: Antifungal activity in vitro, resazurin growth inhibition screen: Sporothrix schenkii; conditions: Sporothrix schenkii B62482
Method: as §1

[5] = system: Aspergillus fumigatus; assay: Antifungal activity in vitro, resazurin growth inhibition screen: Aspergillus fumigatus; conditions: Aspergillus fumigatus B42928
Method: as §1

[6] = system: Candida parapsilosis; assay: Antifungal activity in vitro, resazurin growth inhibition screen: Candida parapsilosis; conditions: Candida parapsilosis B66126
Method: as §1

[7] = system: Cryptococcus neoformans; assay: Antifungal activity in vitro, resazurin growth inhibition screen: Cryptococcus neoformans; conditions: Cryptococcus neoformans B66663
Method: as §1

IC50 ([1]; read-out: Inf. B pIC50 (converted)) [nM] | IC50 ([2]; read-out: Inf. G pIC50 (converted)) [nM] | IC50 ([3]; read-out: Inf. C pIC50 (converted)) [nM] | IC50 ([4]; read-out: Inf. A pIC50 (converted)) [nM] | IC50 ([5]; read-out: Inf. E pIC50 (converted)) [nM] | IC50 ([6]; Lodderomyces parapsilosis, read-out: Inf. D pIC50 (converted)) [nM] | IC50 ([7]; read-out: Inf. F pIC50 (converted)) [nM] | SMILES | Inf. B pIC50 [1] | Inf. G pIC50 [2] | Inf. C pIC50 [3] | Inf. A pIC50 [4] | Inf. E pIC50 [5] | Inf. D pIC50 [6] | Inf. F pIC50 [7]
– | – | – | – | – | – | – | Cl.O=C1CCc2ccc(C3NCc4c(Cl)cccc4-n4cccc43)cc21 (stereo not shown) [Compound 52, 6-(7-chloro-5,6-dihydro-4H-pyrrolo[1,2-a][1,4]benzodiazepin-4-yl)-2,3-dihydro-1H-inden-1-one .HCl] | <4.80 | 4.31 | 4.55 | <4.19 | <4.19 | <4.19 | <4.19
407 | 1620 | 407 | 2630 | 617 | 11000 | 380 | FC1(F)CCc2cc(C3=NCc4cccc(Cl)c4-n4cccc43)ccc2O1 [Compound 72, 10-chloro-4-(2,2-difluoro-3,4-dihydro-2H-1-benzopyran-6-yl)-6H-pyrrolo[1,2-a]-[1,4]benzodiazepine] | – | – | – | – | – | – | –
– | – | – | – | – | – | – | Clc1cccc2c1CN=C(c1ccc3c(c1)OCO3)c1cccn1-2 [Compound 10, 4-(1,3-benzodioxol-5-yl)-7-chloro-6H-pyrrolo[1,2-a][1,4]benzo-diazepine] | 5.00 | 5.30 | 5.70 | <4.19 | <4.19 | <4.19 | 4.48
– | – | – | – | – | – | – | Cl.Fc1cccc2c1CNC(c1ccc3c(c1)CCC(F)(F)O3)c1cccn1-2 (stereo not shown) [Compound 53, 4-(2,2-difluoro-3,4-dihydro-2H-1-benzopyran-6-yl)-7-fluoro-5,6-dihydro-4H-pyrrolo[1,2-a][1,4]benzodiazepine .HCl] | 4.49 | 4.49 | 4.50 | <4.19 | 4.97 | <4.19 | 4.87
– | – | – | – | – | – | – | Br.COc1cc2c(cc1C1NCc3c(Cl)cccc3-n3cccc31)OC(C)C2 (stereo not shown) [Compound 49, 7-chloro-4-(2,3-dihydro-5-methoxy-2-methyl-6-benzofuranyl)-5,6-dihydro-4H-pyrrolo[1,2-a][1,4]benzodiazepine .HBr] | 5.05 | – | 5.10 | <4.19 | <4.19 | <4.19 | 4.34
– | – | – | – | – | – | – | Br.CCOc1cc2c(cc1C1NCc3c(Cl)cccc3-n3cccc31)CCC2 (stereo not shown) [Compound 14, 7-chloro-4-(6-ethoxy-2,3-dihydro-1H-inden-5-yl)-5,6-dihydro-4H-pyrrolo[1,2-a]-[1,4]benzodiazepine .HBr] | 5.10 | – | 5.52 | <4.19 | <4.19 | <4.19 | 4.82
– | – | – | – | – | – | – | Br.Clc1ccc2c(c1)CNC(c1ccc3c(c1)OCO3)c1cccn1-2 (stereo not shown) [Compound 5, 4-(1,3-benzodioxol-5-yl)-8-chloro-5,6-dihydro-4H-pyrrolo[1,2-a][1,4]benzo-diazepine .HBr] | 5.11 | – | 5.05 | <4.19 | <4.19 | <4.19 | 4.42
– | – | – | – | – | – | – | Br.Clc1cccc2c1CNC(c1ccc3c(c1)OCO3)c1cccn1-2 (stereo not shown) [Compound 4, 4-(1,3-benzodioxol-5-yl)-7-chloro-5,6-dihydro-4H-pyrrolo[1,2-a][1,4]benzo-diazepine .HBr] | 5.09 | – | 5.70 | <4.19 | <4.19 | <4.19 | 4.38
– | – | – | – | – | – | – | Br.c1ccc2c(c1)CNC(c1ccc3c(c1)OCO3)c1cccn1-2 (stereo not shown) [Compound 2, 4-(1,3-benzodioxol-5-yl)-5,6-dihydro-4H-pyrrolo[1,2-a][1,4]benzodiazepine .HBr] | 4.42 | – | 4.96 | <4.19 | <4.19 | <4.19 | <4.19
